Converted amounts (≈) assume the structure as drawn. Read-outs that look alike come from different tables or passages of the source.
Legend:
Experiment in all cases: MIC (Minimum Inhibitory Concentration)
Assay type in all cases: cell-based
[1] = test system: Pasteurella multocida; conditions: read-out: MIC values
Description: (§1) In addition they may be used for combatting plant diseases, in particular as fungicides. A list of MIC (Minimum Inhibitory Concentration) values for a number of microorganisms is listed herebelow. The figures in the column headings refer to the compounds prepared according to the experimental examples in comparison with the spectrum of 1-[2-(2,4-dichlorophenyl)-2-{(2,4-dichlorophenyl)-methoxy} -ethyl7-1H-imidazole (better known under the name of miconazole, c.f. Merck Index 9th Ed. page 6047) or natamycin (pimaricin, c.f. Merck Index 9th Ed. page 7233).

[2] = test system: Trichophyton quickeaneum; conditions: read-out: MIC values
Description: as §1

[3] = test system: Streptococcus haemolyticus; conditions: read-out: MIC values
Description: as §1

[4] = test system: Candida albicans
Description: as §1

[5] = test system: Trichophyton tonsurans; conditions: read-out: MIC values
Description: as §1

[6] = test system: Trichophyton rubrum
Description: as §1

[7] = test system: Trichophyton equinum
Description: as §1

[8] = test system: Trichophyton verrucosum
Description: as §1

[9] = test system: Trichophyton schoenleinii; conditions: read-out: MIC values
Description: as §1

[10] = test system: Trichophyton mentagrophytus
Description: as §1

[11] = test system: Trichophyton violoceum; conditions: read-out: MIC values
Description: as §1

SMILES: [C-]#[N+]C(C1=CCOCC1)S(=O)(=O)c1ccc(C)cc1 (stereo not drawn) [Example 14b, α-(2,3-dihydro-6H-pyran-4-yl)-a-(4-toluenesulphonyl)-methylisocyanide]
- MIC ([1]; Pasteurella multocida A 723): 6 µg/mL (≈ 21.6 µM)
- MIC ([2]; Trichophyton quickeaneum A 2040): 25 µg/mL (≈ 90.1 µM)
- MIC ([3]; Streptococcus haemolyticus A 1088): 100 µg/mL (≈ 361 µM)
- MIC ([4]; Candida albicans A 7, read-out: MIC values): 6 µg/mL (≈ 21.6 µM)
- MIC ([4]; Candida albicans A 3140, read-out: MIC values): 6 µg/mL (≈ 21.6 µM)
- MIC ([4]; Candida albicans A 3141, read-out: MIC values): 12.5 µg/mL (≈ 45.1 µM)
- MIC ([4]; Candida albicans A 3142, read-out: MIC values): 6 µg/mL (≈ 21.6 µM)
- MIC ([4]; Candida albicans A 3143, read-out: MIC values): 6 µg/mL (≈ 21.6 µM)
- MIC ([4]; Candida albicans A 3144, read-out: MIC values): 25 µg/mL (≈ 90.1 µM)
- MIC ([4]; Candida albicans A 3145, read-out: MIC values): 12.5 µg/mL (≈ 45.1 µM)
- MIC ([4]; Candida albicans A 3165, read-out: MIC values): 6 µg/mL (≈ 21.6 µM)
- MIC ([4]; Candida albicans A 3166, read-out: MIC values): 6 µg/mL (≈ 21.6 µM)
- MIC ([4]; Candida albicans A 3167, read-out: MIC values): 6 µg/mL (≈ 21.6 µM)
- MIC ([4]; Candida albicans A 3168, read-out: MIC values): 6 µg/mL (≈ 21.6 µM)
- MIC ([4]; Candida albicans A 3169, read-out: MIC values): 6 µg/mL (≈ 21.6 µM)
- MIC ([4]; Candida albicans A 3171, read-out: MIC values): 6 µg/mL (≈ 21.6 µM)
- MIC ([4]; Candida albicans A 3184, read-out: MIC values): 6 µg/mL (≈ 21.6 µM)
- MIC ([4]; Candida albicans A 3190, read-out: MIC values): 12.5 µg/mL (≈ 45.1 µM)
- MIC ([4]; Candida albicans A 3191, read-out: MIC values): 25 µg/mL (≈ 90.1 µM)
- MIC ([4]; Candida albicans A 3192, read-out: MIC values): 6 µg/mL (≈ 21.6 µM)
- MIC ([4]; Candida albicans A 3194, read-out: MIC values): 12.5 µg/mL (≈ 45.1 µM)
- MIC ([4]; Candida albicans A 3196, read-out: MIC values): 25 µg/mL (≈ 90.1 µM)
- MIC ([5]; Trichophyton tonsurans 561-50): 0.4 µg/mL (≈ 1.44 µM)
- MIC ([6]; Trichophyton rubrum 218-65, read-out: MIC values): 3 µg/mL (≈ 10.8 µM)
- MIC ([6]; Trichophyton rubrum 494-62, read-out: MIC values): 25 µg/mL (≈ 90.1 µM)
- MIC ([6]; Trichophyton rubrum A 810, read-out: MIC values): 12.5 µg/mL (≈ 45.1 µM)
- MIC ([7]; Trichophyton equinum 182-76, read-out: MIC values): 25 µg/mL (≈ 90.1 µM)
- MIC ([7]; Trichophyton equinum 441-51, read-out: MIC values): 3 µg/mL (≈ 10.8 µM)
- MIC ([8]; Trichophyton verrucosum 134-66, read-out: MIC values): 3 µg/mL (≈ 10.8 µM)
- MIC ([8]; Trichophyton verrucosum A 2922, read-out: MIC values): 1.5 µg/mL (≈ 5.41 µM)
- MIC ([9]; Trichophyton schoenleinii 435-63): 6 µg/mL (≈ 21.6 µM)
- MIC ([10]; Trichophyton mentagrophytus 367-68, read-out: MIC values): 25 µg/mL (≈ 90.1 µM)
- MIC ([10]; Trichophyton mentagrophytus 421-67, read-out: MIC values): 25 µg/mL (≈ 90.1 µM)
- MIC ([10]; Trichophyton mentagrophytus A 3252, read-out: MIC values): 25 µg/mL (≈ 90.1 µM)
- MIC ([10]; Trichophyton mentagrophytus R 177, read-out: MIC values): 25 µg/mL (≈ 90.1 µM)
- MIC ([10]; Trichophyton mentagrophytus R 178, read-out: MIC values): 50 µg/mL (≈ 180 µM)
- MIC ([11]; Trichophyton violoceum 442-62): 12.5 µg/mL (≈ 45.1 µM)

SMILES: [C-]#[N+]C(=C1CCOCC1)S(=O)(=O)c1ccc(C)cc1 [Example 14a, a-(tetrahydropyran-4-ylidene)-a-(4-toluenesulphonyl)-methyl-isocyanide]
- MIC ([1]; Pasteurella multocida): 6 µg/mL (≈ 21.6 µM)
- MIC ([2]; Trichophyton): 25 µg/mL (≈ 90.1 µM)
- MIC ([3]; Streptococcus): 25 µg/mL (≈ 90.1 µM)
- MIC ([4]; read-out: MIC values, Candida albicans A 7): 12.5 µg/mL (≈ 45.1 µM)
- MIC ([4]; read-out: MIC values, Candida albicans A 3140): 12.5 µg/mL (≈ 45.1 µM)
- MIC ([4]; read-out: MIC values, Candida albicans A 3141): 12.5 µg/mL (≈ 45.1 µM)
- MIC ([4]; read-out: MIC values, Candida albicans A 3142): 12.5 µg/mL (≈ 45.1 µM)
- MIC ([4]; read-out: MIC values, Candida albicans A 3143): 12.5 µg/mL (≈ 45.1 µM)
- MIC ([4]; read-out: MIC values, Candida albicans A 3144): 25 µg/mL (≈ 90.1 µM)
- MIC ([4]; read-out: MIC values, Candida albicans A 3145): 12.5 µg/mL (≈ 45.1 µM)
- MIC ([4]; read-out: MIC values, Candida albicans A 3165): 12.5 µg/mL (≈ 45.1 µM)
- MIC ([4]; read-out: MIC values, Candida albicans A 3166): 6 µg/mL (≈ 21.6 µM)
- MIC ([4]; read-out: MIC values, Candida albicans A 3167): 6 µg/mL (≈ 21.6 µM)
- MIC ([4]; read-out: MIC values, Candida albicans A 3168): 6 µg/mL (≈ 21.6 µM)
- MIC ([4]; read-out: MIC values, Candida albicans A 3169): 6 µg/mL (≈ 21.6 µM)
- MIC ([4]; read-out: MIC values, Candida albicans A 3171): 6 µg/mL (≈ 21.6 µM)
- MIC ([4]; read-out: MIC values, Candida albicans A 3184): 12.5 µg/mL (≈ 45.1 µM)
- MIC ([4]; read-out: MIC values, Candida albicans A 3190): 12.5 µg/mL (≈ 45.1 µM)
- MIC ([4]; read-out: MIC values, Candida albicans A 3191): 12.5 µg/mL (≈ 45.1 µM)
- MIC ([4]; read-out: MIC values, Candida albicans A 3192): 12.5 µg/mL (≈ 45.1 µM)
- MIC ([4]; read-out: MIC values, Candida albicans A 3194): 12.5 µg/mL (≈ 45.1 µM)
- MIC ([4]; read-out: MIC values, Candida albicans A 3196): 12.5 µg/mL (≈ 45.1 µM)
- MIC ([5]; Trichophyton tonsurans): 0.75 µg/mL (≈ 2.7 µM)
- MIC ([6]; read-out: MIC values, Trichophyton rubrum 218-65): 3 µg/mL (≈ 10.8 µM)
- MIC ([6]; read-out: MIC values, Trichophyton rubrum 494-62): 25 µg/mL (≈ 90.1 µM)
- MIC ([6]; read-out: MIC values, Trichophyton rubrum A 810): 12.5 µg/mL (≈ 45.1 µM)
- MIC ([7]; read-out: MIC values, Trichophyton equinum 182-76): 25 µg/mL (≈ 90.1 µM)
- MIC ([7]; read-out: MIC values, Trichophyton equinum 441-51): 6 µg/mL (≈ 21.6 µM)
- MIC ([8]; read-out: MIC values, Trichophyton verrucosum 134-66): 3 µg/mL (≈ 10.8 µM)
- MIC ([8]; read-out: MIC values, Trichophyton verrucosum A 2922): 3 µg/mL (≈ 10.8 µM)
- MIC ([9]; Trichophyton schoenleinii): 6 µg/mL (≈ 21.6 µM)
- MIC ([10]; read-out: MIC values, Trichophyton mentagrophytus 367-68): 25 µg/mL (≈ 90.1 µM)
- MIC ([10]; read-out: MIC values, Trichophyton mentagrophytus 421-67): 25 µg/mL (≈ 90.1 µM)
- MIC ([10]; read-out: MIC values, Trichophyton mentagrophytus A 3252): 25 µg/mL (≈ 90.1 µM)
- MIC ([10]; read-out: MIC values, Trichophyton mentagrophytus R 177): 12.5 µg/mL (≈ 45.1 µM)
- MIC ([10]; read-out: MIC values, Trichophyton mentagrophytus R 178): 100 µg/mL (≈ 361 µM)
- MIC ([11]; Trichophyton): 12.5 µg/mL (≈ 45.1 µM)

From patent publication EP0007672A1, “Isocyanoalkenes, process and useful intermediates for their preparation, pharmaceutical and fungicidal preparations containing those isocyanoalkenes and the use of the fungicidal preparations in agriculture” (GIST-BROCADES N.V., priority 1978, dated 1980)
